Reference: ChEMBL document CHEMBL5303711, “ECBD screening data for assay EOS300108” (2023)
Active and inactive are the calls of the source. The rule behind the calls is not given here.

Assay: Cytotoxicity activity against human HepG2 cells assessed by CellTiter-Glo luminescent cell viability assay.
Type: toxicity, cell-based
Parameters: assay stage confirmatory assay, source tissue liver
Details: HepG2 cells, read-out: IC50 relative

Row | Compound | CC50
1 | CCCCN(CC)CCCNC(=O)c1cc2c(=O)n(C)c3ccccc3c2n1C | 11.8 µM (active)
2 | Cc1cccc(N2CCN(C(=O)C3CCCN(S(=O)(=O)c4ccc5c(c4)oc(=O)n5C)C3)CC2)c1C (stereo unspecified) | 6.1 µM (active)
3 | CCN(CC)C(=O)c1sc2[nH]c(-c3ccccn3)nc(=O)c2c1C | 6 µM (active)
4 | O=C(NO)c1ccc(I)cc1 | 12.2 µM (active)
5 | O=C(Cn1ncc(Cl)c(Cl)c1=O)N(Cc1ccco1)CC(F)(F)F | 6.6 µM (active)
6 | O=C(Nc1nc(-c2ccccn2)cs1)c1ccc(-n2cncn2)cc1 | 1.5 µM (active)
7 | COCCN1COc2c(cc(Cl)c3cccnc23)C1 | 7.5 µM (active)
8 | CN(C)c1ccnc(CNC(=O)Nc2ncc(C(F)(F)F)s2)c1 | 0.6 µM (active)
9 | Cc1cccc2cc(C(=O)Nc3ccc(N4CCN(C)CC4)cn3)oc12 | 12.6 µM (active)
10 | O=C(Cc1cccc(F)c1)Nc1cccc2ncccc12 | 14.5 µM (inactive)
11 | COc1cc(CNc2cc(C)nc(N)n2)ccc1C | 6.7 µM (active)
12 | CC(C)n1ncnc1NC(=O)c1cccc(C(F)(F)F)c1O | 5.6 µM (active)
13 | O=c1[nH]ncc(NCc2ccc(OC[C@H]3CCCO3)cc2)c1Cl | 4.2 µM (inactive)
14 | O=C(Nc1cc(Cl)cc2cccnc12)c1ccoc1 | 0.3 µM (active)
15 | COC1(C(=O)N2CCO[C@H](c3ccccc3C)C2)CS(=O)(=O)C1 | 8.6 µM (active)
16 | O=S(=O)(c1c[nH]cn1)N1CCNC[C@H]1c1cccc(Cl)c1 | 50 µM (inactive)
17 | O=C(Nc1nc2ccccc2[nH]1)c1ccc(-n2cccn2)cc1 | 48.2 µM (inactive)
18 | NCCn1cc(C(=O)N2CCN(Cc3ccc(Br)s3)CC2)nn1 | 7.4 µM (active)
19 | CC[C@H]1CC[C@@H](C)N(C(=O)c2nc(C3CC3)n3ccccc23)C1 | 7.5 µM (active)
20 | O=c1[nH]c(Cc2ccc(-n3cccn3)cc2)nc2ccccc12 | 2.1 µM (active)
21 | CCN(C)C[C@H]1CCN(CCCC2CCCCC2)C1 | 4.5 µM (active)
22 | Cc1cc(SCC#N)n2ncc(-c3ccccc3)c2n1 | 0.9 µM (active)
23 | COc1cc(OC)c(OC)cc1CNC(=O)c1cccc2cccnc12 | 12 µM (inactive)
24 | COc1cc(OC)cc(C(=O)NCc2nc3ncc(Br)cc3[nH]2)c1 | 3.7 µM (active)
25 | CCCCc1cc(NC(=O)[C@H]2CC(=O)N(Cc3ccccc3)C2)[nH]n1 | 1.8 µM (active)
26 | COc1ccc(C(=O)Nc2ccncc2)cc1S(=O)(=O)N(C)Cc1ccccc1 | 10.3 µM (active)

Row | Compound | CC50
27 | Cc1cc(C(=O)Nc2ccccn2)c2ccccc2n1 | 2.1 µM (active)
28 | CN(C)CCNC(=O)Cn1c(Cc2ccccc2)nn(-c2ccc(Cl)cc2)c1=O | 11.7 µM (active)
29 | O=c1c2ccccc2sn1CN1CCN(c2ccc(C(F)(F)F)cn2)CC1 | 8.6 µM (active)
30 | C[C@@H]1Oc2ccc(NC(=O)c3ccc(S(=O)(=O)NCc4ccco4)cc3)cc2NC1=O | 6.8 µM (inactive)
31 | NC(=O)c1coc(-c2csc(-c3ccccc3O)n2)c1 | 2.5 µM (active)
32 | CCc1ccc(-c2cc(C(=O)N3C[C@H]4CC[C@@H]3CN(C)C4)[nH]n2)cc1 | 13.9 µM (inactive)
33 | Cc1nc(NC(=O)c2ccc(C)c(Br)c2)n(C)n1 | 11.7 µM (active)
34 | O=C(c1cc(-c2ccco2)on1)N1CCc2ccccc21 | 8.6 µM (active)
35 | CNC(=O)c1nnn(-c2ccc3ncccc3c2)c1C | 2.2 µM (active)
36 | CC1(C)CCCN(c2ccnc(N[C@H]3CCCOCC3)n2)C1 | 8 µM (active)
37 | Cn1cncc1C(=O)N1CCCN(Cc2ccccc2)c2ccccc21 | 11.5 µM (inactive)
38 | Cc1cc(N2CCN([C@@H](C)c3nc(C(C)(C)C)no3)CC2)nc(C(C)C)n1 | 11.9 µM (active)
39 | Cn1c(NC(=O)c2cccc3cc[nH]c23)nc2ccccc21 | 2.3 µM (active)
40 | CCCOc1ccccc1-n1c(C)cn2c3c(=O)n(C)c(=O)n(C)c3nc12 | 6.7 µM (active)
41 | COc1cc(F)ccc1NC(=O)c1ccc(-c2ccccn2)[nH]c1=O | 11 µM (active)
42 | CCN(c1ccccc1C)S(=O)(=O)c1cn(C)nn1 | 19.9 µM (inactive)
43 | COc1ccc(-c2nc(CN3CCN(C(=O)c4ccc5c(c4)OCO5)CC3)cs2)cc1 | 7.8 µM (active)
44 | Cc1cc(C(=O)Nc2cccc(N(C)C(=O)c3coc(C)c3)c2)co1 | 1.3 µM (active)
45 | CNc1snc(C)c1C(=O)N[C@@H](C)c1ccc2c(c1)OCCCO2 | 4.2 µM (active)
46 | Cc1cccc2nc(C(=O)Nc3ccc4c(c3)OC3(CCCC3)O4)cn12 | 11.9 µM (active)
47 | COc1ccc(C)cc1CN(C)C(=O)CCN1C(=O)COc2ccccc21 | 5.1 µM (inactive)
48 | O=C(c1cccc2cnccc12)N1CCc2c(nc(-c3ccccc3)[nH]c2=O)C1 | 1.5 µM (active)
49 | COc1ccc(S(=O)(=O)N2CCN(C(=O)c3ccc(-c4ccc(C(C)=O)cc4)o3)CC2)cc1OC | 8.5 µM (active)
50 | COc1cc(-c2ccccc2)sc1C(=O)NC1CC1 | 13.4 µM (active)
51 | CC(C)c1nn(-c2ccccc2)cc1CNCC(C)(C)N1CCN(C)CC1 | 4.9 µM (active)
52 | O=c1ccc2cc(S(=O)(=O)Nc3cccc4cccnc34)ccc2o1 | 3.5 µM (active)

Row | Compound | CC50
53 | COc1ccc(CN(CC(=O)c2c(N)n(C)c(=O)n(C)c2=O)[C@@H](C)Cc2cccs2)cc1 | 7.2 µM (active)
54 | O=C(Cn1ncc(Cl)c(Cl)c1=O)NCCC1=CCCCC1 | 4.4 µM (active)
55 | CN(C)C1CCN(CCNC(=O)Nc2ccc(C3CC3)c(F)c2)CC1 | 4.5 µM (active)
56 | O=C(NCc1ccc(-n2ccnc2)nc1)c1ccnc(O[C@H]2CCOC2)c1 | 8.9 µM (active)
57 | COc1ccc2c(c1)OC(C)(C)CN(C(=O)Nc1nc(C)no1)C2 | 11.9 µM (active)
58 | CCCc1cnc(NC(=O)CCc2nnc(-c3ccsc3)o2)s1 | 8.5 µM (active)
59 | COc1ccc(-n2ccc(CNc3ncnc(N)c3Cl)n2)cc1 | 3.1 µM (active)
60 | CCc1nccn1[C@H]1CCCN(CCOc2ccc(OC)cc2)C1 | 4.1 µM (active)
61 | O=C(Nc1nc(-c2ccco2)cs1)c1cccnc1N1CCOCC1 | 1.6 µM (active)
62 | c1ccc2c(OCCN3CCC(N4CCCCC4)CC3)cccc2c1 | 6.4 µM (active)
63 | N#Cc1cnn(C(=O)c2ccc(OCc3ccccc3)cc2)c1N | 6.1 µM (inactive)
64 | Fc1cccc(N2CCCC2)c1CNc1nccc(N[C@H]2CCCOC2)n1 | 6.5 µM (active)
65 | Cc1ccc(CN2CCN(C3CCNC3)CC2)c(Cl)c1Cl (stereo unspecified) | 7.7 µM (active)
66 | COc1ccc(OC)c(N2C[C@@H](C(=O)Nc3ccc(Cl)cn3)CC2=O)c1 | 4.7 µM (active)
67 | Cc1cc(C)cc(-n2ncc3c(OCC(=O)N4CCN(C(=O)c5ccco5)CC4)ncnc32)c1 | 3.6 µM (active)
68 | Cc1cccc2nc(C(=O)Nc3cccnc3-n3cccn3)cn12 | 7 µM (active)
69 | Cc1cccc(N2CCN(CC(=O)c3c(N)n(CC(C)C)c(=O)n(C)c3=O)CC2)c1C | 10.7 µM (active)
70 | COc1ccc(C(=O)Nc2ccc(OC3CCN(C)CC3)cc2)c(OC)n1 | 13.4 µM (active)
71 | COc1ccc(C(=O)N2CCCN(CCc3nc4ccccc4n3C)CC2)cc1 | 11.3 µM (inactive)
72 | CCOc1ccc(NC(=O)C2CCN(S(=O)(=O)c3ccc4c(c3)OCCCO4)CC2)cc1 | 50 µM (inactive)
73 | N#Cc1ccc(NC(=O)Nc2cnn(-c3ccccc3)c2)cc1 | 8.9 µM (active)
74 | CC(C)Cn1ccnc1NC(=O)COc1ccc2ccccc2c1 | 1.1 µM (active)
75 | Cc1noc2ncnc(N3CCC(C(=O)N4CCN(c5cccc(Cl)c5)CC4)CC3)c12 | 9.6 µM (active)
76 | COc1cccc(NC(=O)CN(C)C(=O)Cn2ncc(Cl)c(Cl)c2=O)c1 | 8.5 µM (active)
77 | N#Cc1ccc(NC(=O)Cn2c(=O)ccn(Cc3ccccc3)c2=O)cc1 | 13.9 µM (inactive)
78 | COc1ccc2nc(NC(=O)N(C)Cc3nc(C)cs3)sc2c1 | 12.7 µM (inactive)

Row | Compound | CC50
79 | Cc1cccc(C(=O)Nc2nc3ccccc3[nH]2)n1 | 4.4 µM (active)
80 | O=C(Cn1ncc(Cl)c(Cl)c1=O)N1CCC[C@H]1c1cccs1 | 4.2 µM (active)
81 | CC(=O)c1ccc(-c2ccc(C(=O)Nc3ncc(C)o3)o2)cc1 | 4.2 µM (active)
82 | CCC1(N(C)C)CCN(c2nc(N)c3cc(OC)c(OC)cc3n2)CC1 | 11.2 µM (active)
83 | O=C(Nc1ccnc2ccnn12)c1cc2ccccc2c(=O)[nH]1 | 0.1 µM (active)
84 | O=C(Cn1nnc2ccccc21)Nc1nc(-c2ccccn2)cs1 | 1.7 µM (active)
85 | Cc1cccc2nc(C(=O)Nc3cccc4cccnc34)cn12 | 0.1 µM (active)
86 | Cc1occc1-c1cc(NC(=O)N2CCC[C@H]2c2cccn2C)no1 | 1.1 µM (active)
87 | Cc1ccc([C@H](C)N(C)C(=O)Nc2cc(C(C)C)n[nH]2)cc1 | 5 µM (active)
88 | CC(C)(C)c1nccc(NC(=O)c2ccc(F)c(C#N)c2)n1 | 1.2 µM (active)
89 | CCN(CC)S(=O)(=O)c1ccc(C(=O)Cn2ncc(Cl)c(Cl)c2=O)cc1 | 2 µM (active)
90 | NC(=O)c1cnc(NC(=O)c2cccc(S(=O)(=O)N3CCN(c4ccccc4)CC3)c2)s1 | 37.1 µM (inactive)
91 | COc1ccc(-c2noc(=O)n2Cc2ncc(C)c(OC)c2C)cc1OC | 6.2 µM (active)
92 | Cc1nc(-c2ccccn2)sc1C(=O)Nc1ccccc1O | 2.8 µM (active)
93 | Cc1ccc(NCc2cc(=O)n3c(C)csc3n2)c(F)c1 | 7.2 µM (active)
94 | CCn1c(NC(=O)c2ccc(OC)c(OC)c2)nc2cc(C#N)ccc21 | 2.3 µM (active)
95 | NCC[C@H](N)C(=O)N1CCC2(CCC(=O)N(Cc3ccccc3)C2)CC1 | 11.5 µM (active)
96 | c1cc2c(cc1C1=NN=C(NC3CC3)SC1)OCO2 | 9.1 µM (active)
97 | COc1ccc(C)cc1CN(C)C(=O)CCn1c(=O)[nH]c(=O)c2ccccc21 | 0.2 µM (active)
98 | CCN1C[C@H](CN(C)CC(=O)c2c(N)n(C3CC3)c(=O)[nH]c2=O)Oc2ccccc21 | 13.8 µM (inactive)
99 | O=C(Nc1nccs1)c1cccc(S(=O)(=O)N2CCc3ccccc32)c1 | 8.3 µM (active)
100 | Cc1ccccc1N1CCN(C(=O)C2CCN(S(=O)(=O)c3ccc4c(c3)OCCCO4)CC2)CC1 | 1.7 µM (active)
101 | Cc1ccc(CC(=O)N2CCN(C(=O)[C@@H]3CCCCO3)CC2)cc1 | 0.6 µM (active)
